The results in this text go back to ChEMBL document CHEMBL1136335, “Structure elucidation of Sch 538415, a novel acyl carrier protein synthase inhibitor from a microorganism” (Bioorg Med Chem Lett, 2003).

For orientation: IC50 means the concentration needed to halve the response being measured. A low value points to higher potency.

Assay [1] can be described thus: In vitro inhibitory activity against bacterial Holo-[acyl-carrier-protein] synthase. Further details: species or system Staphylococcus aureus.
The next assay concerns Staphylococcus aureus. Put plainly: Antibacterial activity against Staphylococcus aureus(FDA 209P strain) at a concentration of 5 ug. The class given is functional.

As to `Cc1cc(=O)n(C)c2c1C(=O)c1c(C)cc(=O)n(C)c1C2=O` [DIAZAANTHRAQUINONE], in assay [1], inhibition was half-maximal at 4.19 µM (IC50). The same compound yielded a Zone of inhibition in the assay on Staphylococcus aureus of 12 mm.
